# Measurements taken from PubChem BioAssay AID1117347 (Cheminformatics & Chemogenomics Research Group (CCRG), …, 2015).
# Activity calls are given as the source filed them. No rule for the calls is given here.
# Test system: HeLa cell count decrease
# Assay: decrease in HeLa cell numbers, dose-response curve, cell enumeration, 50% inhibitory concentration (AID 1117347)
row,Structure (SMILES),IC50
1,CCCOc1ccc2nc(NC(=O)OC)[nH]c2c1,0.0467 µM
2,CCC(C)(C)C(=O)O[C@H]1C[C@@H](C)C=C2C=C[C@H](C)[C@H](CC[C@@H]3C[C@@H](O)CC(=O)O3)[C@H]21,> 10 µM (inactive)
3,O=C1c2c(O)cccc2Cc2cccc(O)c21,> 10 µM (inactive)
4,Cc1ccccc1C(=O)Nc1ccc(C(=O)N2CCCC(N(C)C)c3ccccc32)cc1 (configuration not stated),2.91 µM
5,Clc1ccccc1C(c1ccccc1)(c1ccccc1)n1ccnc1,> 10 µM (inactive)
6,CCN(CCCCOC(=O)c1ccc(OC)c(OC)c1)C(C)Cc1ccc(OC)cc1 (configuration not stated),> 10 µM (inactive)
7,CCCCc1ccc2nc(NC(=O)OC)[nH]c2c1,0.00566 µM
8,COC(=O)[C@H]1[C@H]2C[C@@H]3c4[nH]c5cc(OC)ccc5c4CCN3C[C@H]2C[C@@H](OC(=O)/C=C/c2ccc(O)c(OC)c2)[C@@H]1OC,> 10 µM (inactive)
9,Nc1nc(=S)c2[nH]cnc2[nH]1,> 10 µM (inactive)
10,CN(C)c1ccc2nc3ccc(=[N+](C)C)cc-3sc2c1,> 10 µM (inactive)
11,CCN(CC)CCNC(=O)c1c(C)[nH]c(/C=C2\C(=O)Nc3ccc(F)cc32)c1C,1.28 µM
12,CCCCCCCCCCOCC(O)CN (configuration not stated),> 10 µM (inactive)
13,Cc1ccc(CCn2c3c(c4cc(Cl)ccc42)CN(C)CC3)cn1,> 10 µM (inactive)
14,CCCCCCCCCCCCCCCC[n+]1ccccc1,0.405 µM
15,CC[C@]1(O)C[C@H]2CN(CCc3c([nH]c4ccccc34)[C@@](C(=O)OC)(c3cc4c(cc3OC)N(C=O)[C@H]3[C@@](O)(C(=O)OC)[C@H](OC(C)=O)[C@]5(CC)C=CCN6CC[C@]43[C@@H]65)C2)C1,0.0065 µM
16,CN1CCC(Nc2ncc3ncnc(Nc4ccc(F)c(Cl)c4)c3n2)CC1,> 10 µM (inactive)
17,CO[C@@]12[C@H](COC(N)=O)C3=C(C(=O)C(C)=C(N)C3=O)N1C[C@@H]1N[C@@H]12,0.0773 µM
18,Nc1nc(Cl)nc2c1ncn2[C@@H]1O[C@H](CO)[C@@H](O)[C@@H]1F,0.00516 µM
19,CC(=O)Oc1ccc(C2(c3ccc(OC(C)=O)cc3)Oc3ccccc3NC2=O)cc1,5.75 µM (inactive)
20,COc1cccc2c1C(=O)c1c(O)c3c(c(O)c1C2=O)C[C@@](O)(C(=O)CO)C[C@@H]3O[C@H]1C[C@H](N)[C@H](O[C@@H]2CCCCO2)[C@H](C)O1,0.0514 µM
21,COc1ccc(-c2ccc3cc(C(=O)O)ccc3c2)cc1C12CC3CC(CC(C3)C1)C2,5.49 µM (inactive)
22,CC(=O)Nc1ccn(C2COC(COC(=O)c3ccccc3)O2)c(=O)n1 (configuration not stated),0.281 µM
23,Cc1nc2ccc(CN(C)c3ccc(C(=O)N[C@@H](CCC(=O)O)C(=O)O)s3)cc2c(=O)[nH]1,> 10 µM (inactive)
24,Cc1cc2c(C(C)C)c(O)c(O)c(C=O)c2c(O)c1-c1c(C)cc2c(C(C)C)c(O)c(O)c(C=O)c2c1O,3.71 µM

row,Structure (SMILES),IC50
1,Cc1nc2ccccc2n1Cc1ccc(Cl)cc1,0.0318 µM
2,O=[N+]([O-])c1ccc(Oc2ccc(N=C=S)cc2)cc1,> 10 µM (inactive)
3,CCN(CC)CCOc1ccc(/C(=C(\Cl)c2ccccc2)c2ccccc2)cc1,> 10 µM (inactive)
4,COC(=O)c1nc(Cl)c(Cl)nc1N,0.408 µM
5,CC(=O)N(O)CCCCCNC(=O)CCC(=O)N(O)CCCCCNC(=O)CCC(=O)N(O)CCCCCN,> 10 µM (inactive)
6,CCCCCCNC(=O)n1cc(F)c(=O)[nH]c1=O,> 10 µM (inactive)
7,CCN(CC)CCOc1ccc(C(O)(Cc2ccc(Cl)cc2)c2ccc(C)cc2)cc1 (configuration not stated),> 10 µM (inactive)
8,COC(=O)Nc1nc2ccc(S(=O)c3ccccc3)cc2[nH]1 (configuration not stated),0.258 µM
9,CCCCC1C(=O)N(c2ccccc2)N(c2ccc(O)cc2)C1=O (configuration not stated),1.66 µM
10,COc1ccc2cc1Oc1ccc(cc1)C[C@H]1c3c(cc4c(c3Oc3cc5c(cc3OC)CCN(C)[C@@H]5C2)OCO4)CCN1C,5.54 µM (inactive)
11,Cc1nc(N)nc(N)c1-c1ccc(Cl)c(Cl)c1,1.01 µM
12,CC(C)=CCNc1ncnc2c1ncn2[C@@H]1O[C@H](CO)[C@@H](O)[C@H]1O,0.995 µM
13,S=c1nc[nH]c2nc[nH]c12,> 10 µM (inactive)
14,COc1cccc2c1C(=O)c1c(O)c3c(c(O)c1C2=O)C[C@@](O)(C(C)=O)C[C@@H]3O[C@H]1C[C@H](N)[C@H](O)[C@H](C)O1,0.00805 µM
15,O=C(CCl)c1ccc(Cl)cc1Cl,0.35 µM
16,Cc1cc(=O)c2c(O)c3c(O)cc(=O)c4c3c3c(cc(O)c1c23)C(C)(C)C=4O,1 µM
17,Nc1nc(=O)n([C@@H]2O[C@H](CO)[C@@H](O)[C@@H]2F)cc1I,8.5 µM (inactive)
18,CCCCC(CC)CN=C(N)NC(N)=NCCCCCCN=C(N)NC(N)=NCC(CC)CCCC (configuration not stated),0.0186 µM
19,Oc1c(Cl)cc(Cl)cc1Sc1cc(Cl)cc(Cl)c1O,> 10 µM (inactive)
20,CCC(C)n1ncn(-c2ccc(N3CCN(c4ccc(OC[C@H]5CO[C@](Cn6cncn6)(c6ccc(Cl)cc6Cl)O5)cc4)CC3)cc2)c1=O (some centres not stated),> 10 µM (inactive)
21,C1CN(P2(N3CC3)=NP(N3CC3)(N3CC3)=NP(N3CC3)(N3CC3)=N2)CCO1 (configuration not stated),> 10 µM (inactive)
22,NCCCC[C@H](N[C@@H](CCc1ccccc1)C(=O)O)C(=O)N1CCC[C@H]1C(=O)O,> 10 µM (inactive)
23,CCCCCCCCCCCC[N+](C)(C)Cc1ccccc1,> 10 µM (inactive)
